Data: patent US8614064B2, “Methods of diagnosing atherosclerosis by measuring ApoCI” (The Johns Hopkins University, priority 2003, dated 2013)

Key:
[1] = system: human aortic smooth muscles cells (ASMC); assay: Fluorescence microscope quantitative assay of apoptotic death (DAPI staining); assay type: cell-based; details: for apoptotic cells by white staining of the nucleus with DAPI (FIG. 1A): 2.5 μg/mL medium; for percent of apoptotic cells (DAPI, FIG. 1B): ApoCI and ApoCIII 2.5 μg/mL medium, ApoCI-enriched HDL 1 μg apoA-I/mL, ApoCI-poor HDL 5 μg apoA-I/mL, control 2.24%
Description: (§1) FIGS. 1A-1C depict the effect of apolipoproteins on apoptosis in human aortic smooth muscles cells (ASMC). ASMC were grown on sterilized glass cover slips and incubated for 24 hours with media alone (control), ApoCIII (negative control, 2.5 μg/mL medium), ApoCI (2.5 μg/mL medium), ApoCI-enriched HDL (1 μg apoA-I/mL medium), or ApoCI-poor HDL (5 μg apoA-I/mL medium) for 24 hours. Cells were then fixed with ethanol-acetic acid (3:1 volume/volume) and washed 3 times with phosphate-buffered saline. The cells were then stained with DAPI reagent, mounted on a glass cover slide, and subjected to fluorescence microscopy. FIG. 1A: The nucleus of normal cells stains blue and the nucleus of apoptotic cells stains is fragmented white. FIG. 1B: 300 to 500 cells in each sample were counted and the percent of apoptotic cells was plotted. Values are mean±SD; **P<0.01, ***P<0.001. FIG. 1C: DNA ladder assay. Confluent cultures of ASMC were incubated with control medium alone, ApoCI (2.5 μg/mL medium), ApoCIII (negative control, 2.5 μg/mL medium), and TNF-α (positive control, 20 ng/mL medium). Genomic DNA was extracted and 10 μg DNA was subjected to agarose gel electrophoresis. The gels were calibrated with commercially available DNA standards. After electrophoresis, the gels were stained with ethidium bromide and then photographed.
FIGS. 2A-2B depict the effect of ApoCI, the N-SMase inhibitor, GW4869, and C-2 ceramide on apoptosis in cultured human ASMC. FIG. 2A: ASMC (1×10^3) were seeded on sterilized glass cover slips and grown in tissue culture medium with 10% fetal calf serum for 48 hours. […] Thirty minutes later, vehicle DMSO, ApoCI (2.5 μg/mL), or C2-ceramide (10 μmol/L) were added to dishes, and the incubation continued for 24 hours. The cells were then fixed with ethanol-acetic acid (3:1 v/v), stained with DAPI reagent, assessed by fluorescent microscopy, and photographed. Top to bottom: control cells; cells incubated with ApoCI± the N-SMase inhibitor, GW4869; and cells incubated with ApoCI GW4869, and C2-ceramide. FIG. 2B: The DAPI-stained ASMC from the four experimental conditions described was analyzed for quantitative apoptosis. Mean (SD) from 4 experiments. *P<0.05.
Human AoSMC that were negative for mycoplasma, hepatitis B and C and HIV-1 were purchased from Clonetics (San Diego, Calif.) and cultured in Dulbecco's minimal essential medium (Invitrogen, Carlsbad, Calif.) with 10% fetal bovine serum (Hyclone, Salt Lake City, Utah), 100-units/ml penicillin, 100-μg/ml streptomycin to confluence. The cells were incubated in serum-free medium for 30 min prior to initiating the experiments. Cells were then washed and harvested in PBS, and centrifuged at 1500 rpm for 5 min at 4° C. Protease inhibitors were then added and the pellets stored frozen at −30° C. until use.
1×10^3 cells were grown on sterilized glass cover slips in 6-well trays and treated with ApoCI (2.5 μg/ml medium), ApoCIII (2.5 μg/ml medium), tumor necrosis factor (TNF)-α (30 ng/ml), ApoCI-enriched HDL (1 μg apoA-I/ml medium) and ApoCI-poor HDL (5 μg apoA-I/ml medium). After 24 h incubation, the medium was removed, cells fixed with ethanol:acetic acid […] and stored at 4° C. Next, the fixing solution was removed and cells stored frozen at −30° C. Cover slips were mounted on the microscope slides and stained with DAPI reagent (4,6-diamino-2-phenylindol, dihydrochloride). The stained nuclei were visualized by fluorescence microscopy (Zeiss Axiovert 25). Apoptotic cells were determined after counting—500 cells in a double blind fashion.

caspase-3 = assay: Caspase-3 level, Western immunoblot, ASMC; assay type: cell-based, human; details: compared with control medium; ApoCI and ApoCIII 2.5 μg/ml, ApoCI-enriched HDL 1 μg apoA-I/ml, ApoCI-poor HDL 5 μg apoA-I/ml
Description: After incubation with ApoCI (2.5 μg/ml medium), ApoCIII (2.5 μg/ml medium), apoC-1-enriched HDL (1 μg apoA-I/ml medium), or ApoCI-poor HDL (5 μg ApoA-I/ml medium) for 24 h and 48 h, the cells were subjected to extraction with a buffer (30 mM HEPES, pH 7.5, 10 mM KCl, 1.5 mM MgCl2, 5 mM DTI, 2 mM phenylmethylsulfonyl fluoride (PMSF), 1% Nonidet P-40, 0.5% sodium deoxycholate, 0.1% SDS, 2 μg/ml leupeptin, 2 μg/ml aprotinin, 0.5 μg/ml benzamidine, and 250 mM sucrose) on ice for 30 min. Next, the samples were centrifuged at 10,000×g at 4° C. The supernatant was utilized as a source of cytochrome c in Western immunoblot assay. The pellets were lysed in RIPA buffer (phosphate buffer saline, 1% Nonidet P-40, 0.5% sodium deoxycholate, 0.1% SDS, and cocktail of inhibitors described above). The samples were passed through a 21-gauge needle to shear the DNA. Next, 10 μl of PMSF (10 mg/ml) was added and incubation continued for 60 min on ice. The samples were centrifuged at 10,000-×g for 10 min at 4° C. The supernatants were used as a source of protein in Western immunoblot assay for determination of caspase activation. Proteins (100 μg) were separated using 4-15% SDS-polyacrylamide gel under denaturing conditions and electro transferred onto nitrocellulose. […]

[2] = system: human aortic smooth muscles cells (ASMC); assay: DNA laddering assay; assay type: cell-based; details: ApoCI or ApoCIII 2.5 μg/mL, TNF-α positive control
Description: as §1
Cells were treated with either TNF-α (30 ng/ml), ApoCI or ApoCIII (2.5 μg/ml) for 6 h. The cells were then washed twice with minimal essential medium and harvested with buffer (10 mM HEPES, pH 7.4. 5 mM EDTA, 0.25 mM EGTA, 50 mM NaF, 5 mM β-mercaptoethanol, 0.35 M sucrose, 0.1% Nonidet and protease inhibitors, 1 mM phenylmethylsulfonyl fluoride, 2 μg/ml leupeptin and 5 μg/ml pepstatin), and pelleted. Genomic DNA was prepared employing standard protocol. Genomic DNA was subjected to electrophoresis, stained with ethidium bromide and the gel was photographed. The gel was calibrated using DNA fragments of known molecular weight.

O=C(/C=C/c1ccc(/C=C/C(=O)Nc2ccc(C3=NCCN3)cc2)cc1)Nc1ccc(C2=NCCN2)cc1 [GW4869]
effect of GW4869 on ApoCI-induced apoptosis, lower dose ([1]; GW4869 10 μmol/L): also observed
effect of GW4869 on ApoCI-induced apoptosis ([1]; GW4869 20 μmol/L, 30 min before ApoCI 2.5 μg/mL, 24 h): completely abrogated

ApoCIII: purified human ApoCIII purchased from Academy Bio-Medical Company, used as negative control
stimulation of caspase-3 level/expression (caspase-3): to a lesser extent than ApoCI-enriched HDL
apoptotic cells by white staining of the nucleus with DAPI (FIG. 1A) ([1]; 24 h): only a few apoptotic cells
percent of apoptotic cells (DAPI, FIG. 1B) ([1]; 24 h): 4.78%
DNA laddering on agarose gel (FIG. 1C) [2]: did not exhibit significant DNA laddering

Apolipoprotein C-I (TPDVSSALDKLKEFGNTLEDKARELISRIKQSELSAKMREWFSETFQKVKEKLKIDS; UniProt P02654 27-83, looked up) [ApoCI, 6.6-kDa single-chain plasma protein of 57 amino acids; purified human ApoCI purchased from Academy Bio-Medical Company]
stimulation of caspase-3 level/expression (caspase-3): 4 fold
apoptotic cells by white staining of the nucleus with DAPI (FIG. 1A) ([1]; 24 h): many apoptotic cells
percent of apoptotic cells (DAPI, FIG. 1B) ([1]; 24 h): 26.19%
ApoCI-induced apoptosis, percent apoptotic cells (FIG. 2B) ([1]; ApoCI 2.5 μg/mL, 24 h, control ~2%): ~12%
DNA laddering on agarose gel (FIG. 1C) [2]: exhibited DNA laddering
